From patent publication US20210007347A1, “COMPOSITIONS AND METHODS FOR PRESERVING ORGAN TRANSPLANTS” (FIRSTSTRING RESEARCH, INC., priority 2019, published 2021)

Columns and labels:
[1] = system: Endothelial cells (EC); experiment: Cold storage and reperfusion injury of pre-treated endothelial cells, measured by electrical resistance; format: cell-based; details: ECs pre-treated with UW solution comprising 50 μM or 100 μM ACT1 vs UW solution only; 1, 3, 12 and 24 hours post-treatment; FIG. 1A
Method: (§1) Endothelial cells (EC) were pre-treated with University of Wisconsin (UW) solution only, or UW solution comprising 50 μM or 100 μM ACT1. Cold storage and reperfusion injury, pro-inflammatory cytokine release, and gap junction stabilization (Cx43 expression) were measured.

[2] = system: IL-8; experiment: Pro-inflammatory cytokine (IL-8) release from pre-treated endothelial cells; format: cell-based; details: ECs pre-treated with UW solution comprising 50 μM or 100 μM ACT1 vs UW solution only; FIG. 1B
Method: as §1

[3] = system: Cx43; experiment: Gap junction stabilization (Cx43 expression) in pre-treated endothelial cells; format: cell-based; details: ACT1 pretreatment in UW solution; 1 hour and 24 hours post reperfusion; FIG. 1C
Method: as §1

[4] = system: Balb/c donor hearts; experiment: Allogenic heart transplantation model with static cold storage of donor hearts; format: in vivo, Balb/c donors, B6 recipients; details: donor hearts cold stored 6 h at 4° C. in UW solution with ACT1 vs UW alone
[5] = system: Aortic allografts; experiment: Aortic allograft transplantation, chronic rejection; format: in vivo, Balb/c donors, B6 recipients
Method: Aortic allografts were stored for 6 hours or 24 hours, and assessed on Day 28 after transplantation for neointimal hyperplasia (a hallmark of chronic rejection) and T cell infiltration.

[6] = system: Pig kidneys; experiment: Pig kidney ex vivo perfusion model
Method: Pig kidneys were harvested and flushed with cold HTK solution, and then underwent 18 hours of cold static storage in HTK solution. At 18 hours, the kidneys were placed on a perfusion pump and perfused in cold HTK solution with or without 1 μM ACT1 (500 μL/mL). The control kidney in each pair was perfused with cold HTK and its pair was perfused with cold HTK supplemented with ACT1. While on pump, the resistance values were recorded and samples were collected of the perfusate solution every 30 minutes. At the end of 6 hours on the pump, kidneys were taken off of the pump and biopsies were collected and assessed for viability, function, and characteristics as described below.
Tubular necrosis (in this study, a measure of cell death) was assessed by basic histology/pathology methods and subjective scoring. Overall epithelial cell death was determined using EpCam as the marker. The relative expression of Vcam and ICam were determined via RT-qPCR in biopsied tissue at the end of each perfusion pump run. LDH ([…] dehydrogenase) was measured as a marker of tissue injury and was quantified using a colorimetric assay.

[7] = biopsied tissue at end of perfusion with ACT1-augmented HTK solution vs HTK, FIG. 7

RQPKIWFPNRRKPWKKRPRPDDLEI [ACT1]
cold storage and reperfusion injury as measured by electrical resistance [1]: prevented cold storage and reperfusion injury
IL-8 release from the ECs [2]: significantly reduced
Cx43 expression [3]: increased
number of macrophages (MAC-3+ cells) ([4]; FIG. 2C): significantly reduced
number of neutrophils (GR1+ cells) ([4]; FIG. 2C): significantly reduced
IRI as measured by cardiac troponin I ([4]; FIG. 2D): significantly reduced
IRI as measured by cumulative histology score ([4]; FIG. 2D): significantly reduced
percent intimal expansion ([5]; 28 days post-treatment, including aortas stored for 24 hours, FIG. 3B): significantly reduced
neointimal hyperplasia following aorta transplantation ([5]; aortic allografts stored 6 hours or 24 hours, assessed on Day 28 after transplantation, FIG. 3A): ameliorates
change in vascular renal resistance ([6]; 18 h cold static storage in HTK, then 6 hours pump perfusion in cold HTK with 1 μM ACT1 vs without, matched kidney donor pairs #1 and #2, FIGS. 4A, 4B, 5A, 5B): prevents change in vascular renal resistance
tubular necrosis (histology, subjective scoring) ([6]; 18 h cold static storage in HTK, then 6 hours pump perfusion in cold HTK with 1 μM ACT1 vs without, matched kidney donor pairs #1 and #2, FIGS. 4C, 5C): reduces tubular necrosis
endothelial cell activation as measured by Icam expression (RT-qPCR) [6, 7]: decreases endothelial cell activation
endothelial cell activation as measured by Vcam expression (RT-qPCR) [6, 7]: decreases endothelial cell activation
LDH activity (marker of tissue injury, colorimetric assay) ([6]; cold HTK perfusion with 1 μM ACT1 vs without, paired marginal kidneys, FIG. 6): decreases LDH activity
